Laboratory results published in the Biogen ADME set (Fang et al. 2023).
In brackets after ≈: the same amount, converted by molar mass.

Conditions: for aqueous solubility: pH 6.8

| SMILES | intrinsic clearance, human liver microsomes | intrinsic clearance, rat liver microsomes | aqueous solubility | MDR1-MDCK efflux ratio | fraction unbound, rat plasma | fraction unbound, human plasma |
| --- | --- | --- | --- | --- | --- | --- |
| CS(=O)(=O)c1cccc(CNc2nc(Nc3ccc4c(c3)CCC(=O)N4)ncc2C(F)(F)F)c1 | 14.2 mL/min/kg | 133 mL/min/kg | 2.96 µg/mL (≈ 6.03 µM) |  |  |  |
| CNCCN1CCC(OCc2ccccc2)CC1 | 46.5 mL/min/kg | 143 mL/min/kg | 55 µg/mL (≈ 222 µM) |  |  |  |
| CCOC(=O)N1CCC(Nc2nc3ccccc3s2)CC1 | 8.22 mL/min/kg | 294 mL/min/kg | 49.2 µg/mL (≈ 161 µM) | 0.812 |  |  |
| CSCC[C@@H](CO)n1ccnc1-c1oc2ccccc2c1C | 167 mL/min/kg | 2000 mL/min/kg | 73.2 µg/mL (≈ 231 µM) | 3.51 |  |  |
| C=CC[C@]1(O)CC[C@H]2[C@@H]3CCC4=CC(=O)CCC4=C3C=C[C@@]21C | 58.2 mL/min/kg | 592 mL/min/kg |  | 0.761 |  |  |
| CC(=O)N[C@H]1CC2(CCN(C(=O)COc3cc(C)c(Cl)c(C)c3)CC2)OC[C@]1(C)O | 24.4 mL/min/kg | 166 mL/min/kg |  | 42.6 |  |  |
| N#Cc1ccnc(Nc2cc(C3CCN(C4COC4)CC3)cc(N3CCC(F)(F)C3)n2)c1 |  |  | 0.71 µg/mL (≈ 1.61 µM) | 1.85 |  |  |
| CC(C)n1cnnc1SCOCc1ccccc1 | ≤ 4.74 mL/min/kg | 219 mL/min/kg |  | 0.711 |  |  |
| Fc1c(CN2CCC(c3nnc4ccccn34)CC2)cccc1OC1CC1 | 15 mL/min/kg | 120 mL/min/kg |  | 4.29 |  |  |
| Cc1cc(-c2nc(N(C)C)no2)cc(O)n1 | ≤ 4.74 mL/min/kg | 31.7 mL/min/kg |  | 0.726 |  |  |
| Cc1ccc(C(=O)Nc2nc3ccccc3[nH]2)cc1 |  |  | 0.85 µg/mL (≈ 3.38 µM) |  |  |  |
| CC(C)NC(=O)c1cn(-c2ccccc2)nc1-c1ccccc1 |  |  | 0.22 µg/mL (≈ 0.72 µM) | 0.459 |  |  |
| NCc1ccc(Oc2ccccc2)nc1 | 20.7 mL/min/kg | 50.5 mL/min/kg | 22 µg/mL (≈ 110 µM) |  |  |  |
| CNCc1cc(N(C)C)nc(C2CCCN2C(=O)C2CN(Cc3ccc(Cl)cc3)C2)n1 (stereo not given) | 8.66 mL/min/kg | 28.4 mL/min/kg |  | 46.8 |  |  |
| O=c1[nH]c2ccccc2n1C1CCN(S(=O)(=O)Cc2ccccc2)CC1 | 79.4 mL/min/kg | 6660 mL/min/kg | 2.65 µg/mL (≈ 7.13 µM) |  |  |  |
| COc1cccc(-c2cccc(N)n2)c1F | 84.1 mL/min/kg | 258 mL/min/kg | 18.2 µg/mL (≈ 83.4 µM) | 0.764 |  |  |
| Cc1ccc2[nH]c(C3CN(C(=O)Cc4cccc5ccccc45)C3)nc2c1 |  |  | 0.3 µg/mL (≈ 0.844 µM) | 15.2 |  |  |
| CO[C@H]1CC[C@H](C(=O)NC[C@H]2CC[C@H](c3nnc(-c4nccc5ccccc45)o3)CC2)CC1 | 103 mL/min/kg | 378 mL/min/kg | 21.2 µg/mL (≈ 47.3 µM) | 8.64 |  |  |
| CCc1c(C(=O)NCCc2ccc(N3CCCCC3)cc2)[nH]c2ccc(Cl)cc12 | 40.5 mL/min/kg | 484 mL/min/kg |  | 0.577 |  |  |
| CC(=O)N(CC(N)=O)c1ccc(C)cc1 | 5.04 mL/min/kg | 42.8 mL/min/kg |  |  |  |  |
| COc1ccc(-c2onc(C)c2-c2cnn(-c3ccccc3)c2)c(O)c1 |  |  | 0.25 µg/mL (≈ 0.72 µM) |  |  |  |

| SMILES | intrinsic clearance, human liver microsomes | intrinsic clearance, rat liver microsomes | aqueous solubility | MDR1-MDCK efflux ratio | fraction unbound, rat plasma | fraction unbound, human plasma |
| --- | --- | --- | --- | --- | --- | --- |
| O=C(NC1CCCC1)C1=CCN(C(=O)C2CC2)C1 | ≤ 4.74 mL/min/kg | 37.3 mL/min/kg |  | 5.2 |  |  |
| COCCc1noc(CN(C)C(=O)c2ccc3c(c2)CCC3)n1 | 10.4 mL/min/kg | 263 mL/min/kg |  | 0.812 |  |  |
| CCc1cc2c(Nc3cnn(CC)c3)ncnc2s1 | 40.7 mL/min/kg | 102 mL/min/kg | 43 µg/mL (≈ 157 µM) |  |  |  |
| CC(=O)Nc1cc(CCC2CCNCC2)ccn1 | ≤ 4.74 mL/min/kg | ≤ 10.7 mL/min/kg | 51 µg/mL (≈ 206 µM) | 2.42 |  |  |
| CCOc1cccc(CNCCc2c[nH]c3ccccc23)c1 | 90.8 mL/min/kg | 1330 mL/min/kg | 73 µg/mL (≈ 248 µM) | 0.628 |  |  |
| CCCS(=O)(=O)N1CCCC(C(=O)N2CCc3ccccc3C2)C1 (stereo not given) | 62 mL/min/kg | 1010 mL/min/kg | 54.8 µg/mL (≈ 156 µM) | 1.87 |  |  |
| Clc1ccc(COc2cccc(N3CCNCC3)c2)cc1 | 5.23 mL/min/kg | 320 mL/min/kg | 23.2 µg/mL (≈ 76.6 µM) |  |  |  |
| CCn1ncnc1-c1[nH]cnc1-c1ccccc1 | ≤ 4.74 mL/min/kg | 48 mL/min/kg | 23 µg/mL (≈ 96.2 µM) | 2.19 |  |  |
| O=C(C1CC1)N1CCCC(C(=O)N2CCc3ccccc3C2Cc2ccccc2)C1 (stereo not given) | 643 mL/min/kg | 4390 mL/min/kg | 45 µg/mL (≈ 112 µM) |  |  |  |
| COc1ccnc(N2CC(O)(C3CC3)C2)n1 | ≤ 4.74 mL/min/kg | 25.8 mL/min/kg |  | 0.711 |  |  |
| CS(=O)(=O)N1CC(c2n[nH]c3ncccc23)C1 | ≤ 4.74 mL/min/kg | ≤ 10.7 mL/min/kg | 33.3 µg/mL (≈ 132 µM) | 1.41 |  |  |
| COc1ccc(C(C)(C)C)cc1NC(=O)C1(C#N)CCCC1 |  |  | 0.3 µg/mL (≈ 0.999 µM) | 0.478 |  |  |
| Cn1cc(-c2ccc3nnc(C(F)(F)c4ccc5ncccc5c4)n3n2)cn1 | ≤ 4.74 mL/min/kg | 59.2 mL/min/kg | 43 µg/mL (≈ 114 µM) | 9.46 |  |  |
| O=C(Nc1cccc2cnccc12)c1cccc(F)c1 | 34.9 mL/min/kg | 132 mL/min/kg | 47.6 µg/mL (≈ 179 µM) |  |  |  |
| CN(C)CCSc1nnnn1-c1ccc(Br)cc1 | 28.6 mL/min/kg | 1740 mL/min/kg |  | 0.435 |  |  |
| O=C(CSC1CCCC1)NCCn1nc2c(cc1=O)CCCC2 | 71 mL/min/kg | 1180 mL/min/kg | 60.8 µg/mL (≈ 181 µM) | 9.14 |  |  |
| CN1CCN(c2ccc(NC(=O)c3ccccc3Cl)nc2)CC1 | ≤ 4.74 mL/min/kg | 349 mL/min/kg | 45.8 µg/mL (≈ 138 µM) | 0.523 |  |  |
| C#CCOc1ccc(OC)cc1C(N)=O | 13.8 mL/min/kg | 73.3 mL/min/kg |  | 0.717 |  |  |
| CC(=O)N[C@H]1/C(=N\OC(=O)Nc2ccccc2)O[C@H](CO)[C@H](O)[C@@H]1O |  |  | 66.4 µg/mL (≈ 188 µM) |  |  |  |
| CS(=O)(=O)NCCN1CCc2c(Cl)cc(Cl)cc2C1 | 14.3 mL/min/kg | 400 mL/min/kg |  | 0.707 |  |  |
| CCNC(=O)c1ccnc(-c2ccc(F)c(C)c2)c1 | 123 mL/min/kg | 1070 mL/min/kg | 28.4 µg/mL (≈ 110 µM) |  |  |  |

| SMILES | intrinsic clearance, human liver microsomes | intrinsic clearance, rat liver microsomes | aqueous solubility | MDR1-MDCK efflux ratio | fraction unbound, rat plasma | fraction unbound, human plasma |
| --- | --- | --- | --- | --- | --- | --- |
| Cc1noc2ncc(-c3nnc(CC(C)(C)C)o3)cc12 |  |  | 37.7 µg/mL (≈ 138 µM) |  |  |  |
| N#Cc1ccc2nc([C@H]3CCN(C4CCC4)C3)[nH]c2c1 | 7.26 mL/min/kg | 68.4 mL/min/kg | 50.2 µg/mL (≈ 188 µM) | 4.41 |  |  |
| CC(C)CCNC(=O)c1ccc2ccccc2n1 | 168 mL/min/kg | 640 mL/min/kg | 7.28 µg/mL (≈ 30 µM) |  |  |  |
| CCOc1c2c(c(OCC)c3ccccc13)C(=O)N(c1ccc(CC(=O)NS(=O)(=O)c3ccccc3)cc1)C2 | ≤ 4.74 mL/min/kg | 17.3 mL/min/kg |  | 2.9 |  |  |
| CN(C)S(=O)(=O)Nc1ccc(-n2ncc3ccccc32)cc1 | 21.5 mL/min/kg | 959 mL/min/kg | 38.9 µg/mL (≈ 123 µM) | 0.562 |  |  |
| Cn1nc(CNC(=O)C2CCC2)c2ccccc21 | 12.5 mL/min/kg | 147 mL/min/kg |  | 0.662 |  |  |
| CN(C)c1nc(-c2cccc(-c3ccccc3)c2)n[nH]1 |  |  | 0.81 µg/mL (≈ 3.06 µM) |  |  |  |
| CC(C)CN(c1ncnc2c1cnn2C)C1CC1 | 50.5 mL/min/kg | 345 mL/min/kg | 29.6 µg/mL (≈ 121 µM) | 0.731 |  |  |
| Cn1c(=O)c(C(=O)CSc2nc3ccccc3n2C)c(N)n(Cc2ccccc2)c1=O | 839 mL/min/kg | 2400 mL/min/kg |  | 13 |  |  |
| Cn1ccnc1COc1ccc(CO)cc1 |  |  | 57.4 µg/mL (≈ 263 µM) |  |  |  |
| COc1ccc(NC(=O)c2snnc2C)c(OC)c1 | 34.2 mL/min/kg | 182 mL/min/kg | 3.67 µg/mL (≈ 13.1 µM) | 0.521 |  |  |
| O=c1c2oc3ccccc3c2ncn1Cc1ccc(F)c(F)c1 | 81.2 mL/min/kg | 788 mL/min/kg |  | 0.537 |  |  |
| COCCc1ccc(OCC(O)CNC(C)C)cc1 (stereo not given) |  |  |  |  | 1 |  |
| CCC(=O)Nc1ccc(F)c(NC(=O)N2CC=C(C)CC2)c1 | 9.2 mL/min/kg | 68.6 mL/min/kg |  | 1.35 |  |  |
| Cc1nc(N2CCn3ccnc3C2)c2cnn(C)c2n1 | 10.5 mL/min/kg | ≤ 10.7 mL/min/kg | 32.9 µg/mL (≈ 122 µM) | 3.63 |  |  |
| Cc1ccc2oc([C@H]3CCN(Cc4ccc(C#N)cc4)C3)nc2c1 | 41.5 mL/min/kg | 351 mL/min/kg | 5.4 µg/mL (≈ 17 µM) |  |  |  |
| CC1CN(C(=O)c2cccnc2N2CCOCC2)CC(c2ccccc2)O1 (stereo not given) | 35.9 mL/min/kg | 554 mL/min/kg |  | 5.22 | 0.359 | 0.374 |
| CC1CCC(CNC2(CCO)CCOCC2)CC1 (stereo not given) | ≤ 4.74 mL/min/kg | 1200 mL/min/kg |  | 1.29 |  |  |
| O=C(O)c1ccc(-c2c[nH]c3ncc(-c4ccccc4)cc23)cc1C1CCCC1 |  |  | 0.41 µg/mL (≈ 1.07 µM) | 1.54 |  |  |
| CC(C)Oc1ccc(C#N)cc1NC1CCN(C)CC1 | ≤ 4.74 mL/min/kg | 100 mL/min/kg |  | 2.51 |  |  |
